Test results as given in the supplement of paper PMC11208160.

Columns and labels:
[1] = recombinant barcode read abundance after kanamycin selection (control-corrected) (log10(CPM+1)); higher = more efficient recombination; sequences stand for … in AGTGCAGAGAAAATCGGCCAGTTTTCTCTGCCTGCAGTCCGCATGCCGT…ATTTATGCAGCGGACTGCCTTTCTCCCAAAGTGATAAACCGGACAGTATCATGGACCGGTTTTCCCGGTAATCCGTATTTGCAAGGTTGGTTTCACT; site = the 11-nt target
Experimental: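 Same pooled E. coli target screen (IS621 bridge recombinase, kanamycin selection, control-corrected CPM, mean of 2 biological replicates). Here the two core-binding nucleotides of the LTG and RTG of the bridge RNA target-binding loop are mutated. Target and donor CT cores are held constant, and the other 9 guide positions match the target. The target is read from the library oligo sequence. Molecule = full bridge RNA written as DNA: nt 1-80 from the library oligo, rest WT scaffold.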

[2] = recombinant barcode read abundance after kanamycin selection (control-corrected) (log10(CPM+1)); higher = more efficient recombination; sequences stand for … in AGTGCAGAGAAAATCGGCCAGTTTTCTCTGCCTGCAGTCCGCATGCCGT…AGATTTATGCAGCGGACTGCCTTTCTCCCAAAGTGATAAACCGGACAGTATCATGGACCGGTTTTCCCGGTAATCCGTATTTGCAAGGTTGGTTTCACT; site = the 11-nt target
Method in brief: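 Values are log10(CPM+1) from a pooled E. coli screen of targets paired with IS621 bridge RNA target-binding loops. Recombination efficiency here means counts per million of recombinant-junction barcodes, averaged and control-corrected. Plates were chloramphenicol/ampicillin LB agar for the control and chloramphenicol/ampicillin/kanamycin with 0.1 mM IPTG, two replicates each.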

Sequence	recombinant barcode read abundance (log10) [1]	recombinant barcode read abundance (log10) [2]
AAACACAAATGGGTTCTAACCTGTTGCCTTT [AAACACACTAG_LTGcore_AA_RTGcore_AA] (site AAACACACTAG) (LTG core: AA, RTG core: AA)	0.0994	
AAACACAAGTGGGTTCTAACCTGTTGCCTAG [AAACACACTAG_LTGcore_AG_RTGcore_CT] (site AAACACACTAG) (LTG core: AG, RTG core: CT)	0.0385	
AAACACACCTGGGTTCTAACCTGTTGCCTGG [AAACACACTAG_LTGcore_CC_RTGcore_CC] (site AAACACACTAG) (LTG core: CC, RTG core: CC)	1.46	
AAACACACGTGGGTTCTAACCTGTTGCCTAG [AAACACACTAG_LTGcore_CG_RTGcore_CT] (site AAACACACTAG) (LTG core: CG, RTG core: CT)	0.622	
AAACACACTTGGGTTCTAACCTGTTGCCTGG [AAACACACTAG_LTGcore_CT_RTGcore_CC] (site AAACACACTAG) (LTG core: CT, RTG core: CC)	0.927	
AAACACACTTGGGTTCTAACCTGTTGCCTGT [AAACACACTAG_LTGcore_CT_RTGcore_AC] (site AAACACACTAG) (LTG core: CT, RTG core: AC)	0.639	
AAACACACTTGGGTTCTAACCTGTTGCCTTT [AAACACACTAG_LTGcore_CT_RTGcore_AA] (site AAACACACTAG) (LTG core: CT, RTG core: AA)	0.938	
AAACACAGATGGGTTCTAACCTGTTGCCTAG [AAACACACTAG_LTGcore_GA_RTGcore_CT] (site AAACACACTAG) (LTG core: GA, RTG core: CT)	0.0116	
AAACACATGTGGGTTCTAACCTGTTGCCTCA [AAACACACTAG_LTGcore_TG_RTGcore_TG] (site AAACACACTAG) (LTG core: TG, RTG core: TG)	0.0962	
AAACACATTTGGGTTCTAACCTGTTGCCTAG [AAACACACTAG_LTGcore_TT_RTGcore_CT] (site AAACACACTAG) (LTG core: TT, RTG core: CT)	0.0289	
AAACAGTAGTGGGTTCTAACCTGTTGCCTCT [AAACAGTCTAG_LTGcore_AG_RTGcore_AG] (site AAACAGTCTAG) (LTG core: AG, RTG core: AG)	0.13	
AAACAGTATTGGGTTCTAACCTGTTGCCTAT [AAACAGTCTAG_LTGcore_AT_RTGcore_AT] (site AAACAGTCTAG) (LTG core: AT, RTG core: AT)	0.204	
AAACAGTCTTGGGTTCTAACCTGTTGCCTAG [AAACAGTCTAG_LTGcore_CT_RTGcore_CT] (site AAACAGTCTAG) (LTG core: CT, RTG core: CT)	2.46	
AAACAGTCTTGGGTTCTAACCTGTTGCCTGA [AAACAGTCTAG_LTGcore_CT_RTGcore_TC] (site AAACAGTCTAG) (LTG core: CT, RTG core: TC)	0.883	
AAACAGTCTTGGGTTCTAACCTGTTGCCTGG [AAACAGTCTAG_LTGcore_CT_RTGcore_CC] (site AAACAGTCTAG) (LTG core: CT, RTG core: CC)	0.921	
AAACAGTCTTGGGTTCTAACCTGTTGCCTTA [AAACAGTCTAG_LTGcore_CT_RTGcore_TA] (site AAACAGTCTAG) (LTG core: CT, RTG core: TA)	1.78	
AAACAGTGCTGGGTTCTAACCTGTTGCCTAG [AAACAGTCTAG_LTGcore_GC_RTGcore_CT] (site AAACAGTCTAG) (LTG core: GC, RTG core: CT)	0.16	
AAACAGTTCTGGGTTCTAACCTGTTGCCTGA [AAACAGTCTAG_LTGcore_TC_RTGcore_TC] (site AAACAGTCTAG) (LTG core: TC, RTG core: TC)	0.262	
AAACATGAATGGGTTCTAACCTGTTGCCTTT [AAACATGCTAG_LTGcore_AA_RTGcore_AA] (site AAACATGCTAG) (LTG core: AA, RTG core: AA)	0.133	

Sequence	recombinant barcode read abundance (log10) [1]	recombinant barcode read abundance (log10) [2]
AAACATGACTGGGTTCTAACCTGTTGCCTAG [AAACATGCTAG_LTGcore_AC_RTGcore_CT] (site AAACATGCTAG) (LTG core: AC, RTG core: CT)	0.0862	
AAACATGATTGGGTTCTAACCTGTTGCCTAT [AAACATGCTAG_LTGcore_AT_RTGcore_AT] (site AAACATGCTAG) (LTG core: AT, RTG core: AT)	0.0454	
AAACATGCATGGGTTCTAACCTGTTGCCTAG [AAACATGCTAG_LTGcore_CA_RTGcore_CT] (site AAACATGCTAG) (LTG core: CA, RTG core: CT)	0.141	
AAACATGCATGGGTTCTAACCTGTTGCCTTG [AAACATGCTAG_LTGcore_CA_RTGcore_CA] (site AAACATGCTAG) (LTG core: CA, RTG core: CA)	0.0197	
AAACATGCTTGGGTTCTAACCTGTTGCCTAG [AAACATGCTAG_LTGcore_CT_RTGcore_CT] (site AAACATGCTAG) (LTG core: CT, RTG core: CT)	1.43	
AAACATGCTTGGGTTCTAACCTGTTGCCTGA [AAACATGCTAG_LTGcore_CT_RTGcore_TC] (site AAACATGCTAG) (LTG core: CT, RTG core: TC)	1.4	
AAACATGGCTGGGTTCTAACCTGTTGCCTAG [AAACATGCTAG_LTGcore_GC_RTGcore_CT] (site AAACATGCTAG) (LTG core: GC, RTG core: CT)	0.349	
TTGCCAACTTGGGTTCTAACCTGTTGCCT (site TTGCCAACTAG)		0.332
TTGCCAACTTGGGTTCTAACCTGTTGCCT (site TTGCGAACTAG)		0.0564
TTGCCAACTTGGGTTCTAACCTGTTGCCT (site TTGCTAACTAG)		0.00831
TTGCCGACTTGGGTTCTAACCTGTTGCCT (site TTGCCGACTAG)		0.716
TTGCCGACTTGGGTTCTAACCTGTTGCCT (site TTGCCTACTAG)		0
TTGCCTACTTGGGTTCTAACCTGTTGCCT (site TTGCCGACTAG)		0.0577
TTGCCTACTTGGGTTCTAACCTGTTGCCT (site TTGCCTACTAG)		0.339
TTGCGAGCTTGGGTTCTAACCTGTTGCAT (site TTGCGAGCTAT)		1.82
TTGCGAGCTTGGGTTCTAACCTGTTGCAT (site TTGCGTGCTAA)		0.0906
TTGGATCCTTGGGTTCTAACCTGTTGCTT (site TTGGATCCTAA)		1.87
TTGGATCCTTGGGTTCTAACCTGTTGCTT (site TTGGATCCTAG)		1.85
TTGGGCACTTGGGTTCTAACCTGTTGCCT (site TTGGACACTAG)		0.196

Sequence	recombinant barcode read abundance (log10) [1]	recombinant barcode read abundance (log10) [2]
TTGGGCACTTGGGTTCTAACCTGTTGCCT (site TTGGCCACTAG)		0.176
TTGGGCACTTGGGTTCTAACCTGTTGCCT (site TTGGGCACTAG)		0.0687
TTGGGCACTTGGGTTCTAACCTGTTGCCT (site TTGGTCACTAG)		0.103
TTGGGTGCTTGGGTTCTAACCTGTTGCAT (site TAGGCTGCTAT)		0.16
TTGGGTGCTTGGGTTCTAACCTGTTGCAT (site TTGGGTGCTAT)		1.3
TTGGGTTCTTGGGTTCTAACCTGTTGCCT (site TTGGGTGCTCG)		0.0625
TTGGGTTCTTGGGTTCTAACCTGTTGCCT (site TTGGGTTCTAG)		0.767
TTGTACACTTGGGTTCTAACCTGTTGCTC (site CAACTAGCTAT)		0.043
TTGTACACTTGGGTTCTAACCTGTTGCTC (site TTGTACACTGA)		1.06
TTGTACTCTTGGGTTCTAACCTGTTGCTT (site TTGTACTCTAA)		0.453
TTGTACTCTTGGGTTCTAACCTGTTGCTT (site TTGTGTTCTAA)		0.0725
TTGTATTCTTGGGTTCTAACCTGTTGCCT (site TTGAATTCTAA)		0.0409
TTGTATTCTTGGGTTCTAACCTGTTGCCT (site TTGTATTCTAG)		0.679
TTGTCGACTTGGGTTCTAACCTGTTGCCA (site TTGACGACTTG)		0.105
TTGTCGACTTGGGTTCTAACCTGTTGCCA (site TTGCCGACTTG)		0.0807
TTGTCGACTTGGGTTCTAACCTGTTGCCA (site TTGGCGACTTG)		0.00572
TTGTCGACTTGGGTTCTAACCTGTTGCCA (site TTGTCGACTTG)		0.087
TTGTGAGCTTGGGTTCTAACCTGTTGCCA (site ACAGTTACTAT)		0.0715
TTGTGAGCTTGGGTTCTAACCTGTTGCCA (site TTGTGAGCTTG)		1.1
